According to PubChem BioAssay (NCI):
“And” between values parts separate entries of the source, which are not always exact repeats. Identical values can stand only once.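 Five concentrations, 48 hours, 96-well plates. GI50 marks 50% less growth. Definition used: TGI = concentration required for complete inhibition of growth.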 Where a SMILES comes first, the peptide text is derived from it. The star is where a group is joined. Cbz = O=C(OCc1ccccc1)*

Assays:
Assay in all cases: NCI anticancer screen, dose series, 48 h
BT-549 breast = system: BT-549 breast
EKVX NSCLC = system: EKVX NSCLC
HCT-116 colon = system: HCT-116 colon
HT29 colon = system: HT29 colon
M14 melanoma = system: M14 melanoma
MALME-3M melanoma = system: MALME-3M melanoma
NCI-H226 lung = system: NCI-H226 lung
OVCAR-3 ovarian = system: OVCAR-3 ovarian
SK-MEL-28 melanoma = system: SK-MEL-28 melanoma
SR leukemia = system: SR leukemia
SW-620 colon = system: SW-620 colon

Structure (SMILES) | TGI (BT-549 breast) | TGI (EKVX NSCLC) | TGI (HCT-116 colon) | TGI (HT29 colon) | TGI (M14 melanoma) | TGI (MALME-3M melanoma) | TGI (NCI-H226 lung) | TGI (OVCAR-3 ovarian) | TGI (SK-MEL-28 melanoma) | TGI (SR leukemia) [µM] | TGI (SW-620 colon) | GI50 (BT-549 breast) [µM] | GI50 (EKVX NSCLC) [µM] | GI50 (MALME-3M melanoma) [µM] | GI50 (NCI-H226 lung) [µM] | GI50 (SK-MEL-28 melanoma) [µM] | GI50 (SR leukemia) [µM] | GI50 (SW-620 colon) [µM]
CO[C@H]1O[C@@H]2CO[C@@H](c3ccccc3)O[C@H]2C[C@]12CCC/C=C\CO2 | 23.9 µM | 25.8 µM | 23.5 µM | 40.5 µM | 41.2 µM | 26.4 µM | 50.9 µM | 24.6 µM | 26.6 µM | 31.8 | 61.1 µM |  |  |  |  |  |  | 
CC(Cc1ccc(O)c(O)c1)C(C)Cc1ccc(O)c(O)c1 (stereo not given) | 26.8 µM | 58.8 µM | 34.2 µM | 51.5 µM | 34 µM | 29.5 µM | 59.8 µM | 27.4 µM | 31.1 µM | > 74.3 | 49.9 µM |  |  |  |  |  |  | 
O=[N+]([O-])C1(C2([N+](=O)[O-])CCCC2)CCCC1 | > 100 µM | > 100 µM | > 100 µM | > 100 µM | > 100 µM | > 100 µM | > 100 µM | > 100 µM | > 100 µM | > 100 | > 100 µM |  |  |  |  |  |  | 
CCOC(=O)c1nc2cc(C(F)(F)F)ccc2nc1Nc1ccc(Cl)c(Cl)c1 | > 100 µM | > 100 µM | > 100 µM | > 100 µM | > 100 µM | > 100 µM | > 100 µM | > 100 µM | > 100 µM | > 100 | > 100 µM |  |  |  |  |  |  | 
Cc1cccc2c1C(=O)C(C1OC(=O)c3ccccc31)C2 (stereo not given) | > 100 µM | > 100 µM | > 100 µM | > 100 µM |  | > 100 µM | > 100 µM | > 100 µM | > 100 µM | > 100 | > 100 µM |  |  |  |  |  |  | 
Cn1c(=O)n(CC(Br)CBr)c(=O)n(CC(Br)CBr)c1=O (stereo not given) | > 100 µM | 88.7 µM | 79.3 µM | 54.6 µM | 73.6 µM | > 100 µM | 58.9 µM | > 100 µM | > 100 µM | 37.4 | > 100 µM |  |  |  |  |  |  | 
CSc1c(C#N)c2n(c3ccccc3[n+]2C)c2ncccc12 | 70.5 µM | 50.5 µM | > 100 µM | > 100 µM | 52.6 µM | 40.3 µM | 49.9 µM | 71.7 µM | 49.1 µM | > 100 | > 100 µM |  |  |  |  |  |  | 
S=C1C=C(c2ccccc2)Sc2ccccc2N1 | > 100 µM | > 100 µM | > 100 µM | > 100 µM | > 100 µM | > 100 µM | > 100 µM | > 100 µM | > 100 µM | > 100 |  |  |  |  |  |  |  | 
CN1C[C@@H]2CCCN2P1Oc1cccc2cccnc12 (stereo not given in full) | > 100 µM | 90.6 µM | 89 µM | > 100 µM | > 100 µM | > 100 µM | > 100 µM | 90.2 µM | > 100 µM | > 100 | > 100 µM |  |  |  |  |  |  | 
COC/C=C\[C@@]1(O)CCCC[C@@H]1CC(OC)OC | > 100 µM | > 100 µM | > 62.7 µM | > 100 µM | > 100 µM | > 100 µM | > 100 µM | > 100 µM | > 80.6 µM | 98.9 | > 100 µM |  |  |  |  |  |  | 
Cc1ccc(C2=Nc3c(N)nc(N)nc3NC(c3ccccc3)C2)cc1 (stereo not given) | 22 µM and 23.6 µM | 27.2 µM and 28.2 µM | 17.5 µM and 17.6 µM | 14.1 µM and 14.8 µM | 20.8 µM and 21.8 µM | 23.6 µM and 24.5 µM | 29.3 µM and 36.7 µM | 24.8 µM and 24.9 µM | 24.8 µM and 35.3 µM | > 100 | 15.2 µM and 16.2 µM |  |  |  |  |  |  | 
CCOC(=O)C(C)NC(=O)C(C)NC(=O)C(C)NC(=O)C(C)NC(=O)C(C)NC(=O)C(C)NC(=O)C(C)NC(=O)OCc1ccccc1 (stereo not given) (Cbz-AAAAAAA-OEt; configuration not given here) | > 100 µM | > 100 µM | > 100 µM | > 100 µM | > 100 µM | > 100 µM | > 100 µM | > 100 µM | > 100 µM | > 100 | > 100 µM |  |  |  |  |  |  | 
CCOC(=O)c1c(SCCO)n(-c2ccccc2)c(=S)n(-c2ccccc2)c1=O | > 100 µM | > 100 µM | > 100 µM | > 100 µM | > 100 µM | > 100 µM | > 100 µM | > 100 µM | > 100 µM | > 100 | > 100 µM |  |  |  |  |  |  | 
O=C(O)CCC1(c2ccccc2)NC(=O)NC1=O (stereo not given) | > 100 µM | > 100 µM | > 100 µM | > 100 µM | > 100 µM | > 100 µM | > 100 µM | > 100 µM | > 100 µM | > 100 | > 100 µM |  |  |  |  |  |  | 
CN(/N=C\c1ccc2ccccc2c1)C1=NCCCCN1 | 46.8 µM | > 100 µM | > 100 µM | 38.2 µM |  | 30.1 µM | > 100 µM | > 100 µM | 31.1 µM | 68.7 | 37.8 µM |  |  |  |  |  |  | 
CC(C)[Si]1(C(C)C)OCC2OC(n3ccc(=O)[nH]c3=O)C(O)(CO)C2O[Si](C(C)C)(C(C)C)O1 (stereo not given) | 30.7 µM | 27.4 µM | 27.7 µM | 28.7 µM | 34.8 µM | 28.4 µM | 36.8 µM | 29.4 µM | 36.7 µM | 30 | 33.8 µM |  |  |  |  |  |  | 
O=C1c2ccccc2C(=O)N1c1ccc(OCCN2CCCCC2)cc1 | > 100 µM | > 100 µM | > 100 µM | > 100 µM | > 100 µM | > 100 µM | > 100 µM | > 100 µM | > 100 µM | > 100 | > 100 µM |  |  |  |  |  |  | 
C=C(Cl)C(Cl)(CBr)CCC(Cl)C(C)(C)Cl (stereo not given) | 20.1 µM | 20.9 µM | 2.02 µM | 0.968 µM | 35.6 µM | 22.8 µM | 61 µM | 3.34 µM | 3.8 µM | 39.4 | 4.75 µM |  |  |  |  |  |  | 
Clc1nc2c(-c3cccs3)ncnc2n1Cc1ccccc1 | > 81.8 µM | 55.4 µM | > 100 µM | > 100 µM | > 100 µM | > 100 µM | > 100 µM | 49.8 µM | > 100 µM | > 100 | > 70.5 µM |  |  |  |  |  |  | 
CC(C)(C)OC(=O)N1CCC23CCCC2C(=O)CC=C13 (stereo not given) | > 100 µM | > 100 µM | > 100 µM | > 100 µM | > 100 µM | > 100 µM | > 100 µM | > 100 µM | > 100 µM | > 100 | > 100 µM |  |  |  |  |  |  | 
O=C(CCN1CCCC1)Nc1ccc2c(NCCCc3ccccc3)c3ccccc3nc2c1 | 3.11 µM | 2.56 µM |  |  |  | 3.12 µM | 2.83 µM |  | 3.25 µM | 2.55 | 1.93 µM | 1.61 | 1.21 | 1.58 | 1.27 | 1.77 | 0.467 | 0.54
Nc1cccc(OCc2nc(N)nc(N)c2-c2ccc(Cl)cc2)c1 | > 100 µM | > 100 µM | > 100 µM | > 100 µM | > 100 µM | > 100 µM | 79.5 µM | > 100 µM | > 100 µM | > 100 | > 100 µM |  |  |  |  |  |  | 
CCC(=O)NCCc1c[nH]c2ccc(OC)cc12 | > 100 µM | > 100 µM | > 100 µM | > 100 µM | > 100 µM | > 100 µM | > 100 µM | > 100 µM | > 100 µM | > 100 | > 100 µM |  |  |  |  |  |  | 
O=C(O)c1ccccc1/C=N\NC1=NCCN1 | > 100 µM | > 100 µM | > 100 µM | > 100 µM | > 100 µM | > 100 µM | > 100 µM | > 100 µM |  | > 100 | > 100 µM |  |  |  |  |  |  | 
CC1OC(=O)c2ccccc2NC1=O (stereo not given) | > 100 µM | > 100 µM | > 100 µM | > 100 µM | > 100 µM | > 100 µM | > 100 µM | > 100 µM | > 100 µM | > 100 | > 100 µM |  |  |  |  |  |  | 
C=CCn1c(=O)c(C)cn(/C(=C/C(=O)OCC)C(=O)OCC)c1=O | 30.2 µM | 28.7 µM | 21.5 µM | 25.8 µM | 28.1 µM | 29.2 µM | > 54.7 µM | 23.3 µM | 32.3 µM | 13.3 | 15.5 µM |  |  |  |  |  |  | 
CC(C)(C)OC(=O)NC(Cc1ccc([N+](=O)[O-])cc1)C(=O)NC(CCCCNC(=O)OCc1ccccc1)C(=O)ON1C(=O)CCC1=O (stereo not given) | > 100 µM | > 100 µM | > 100 µM | > 100 µM | > 100 µM | > 100 µM | > 100 µM | > 100 µM | > 100 µM | > 100 | > 100 µM |  |  |  |  |  |  | 
Cc1cn(C2CC(N=[N+]=[N-])C(CO[Si](C)(C)C(C)(C)C)O2)c(=O)[nH]c1=O (stereo not given) | 23.7 µM | 58.1 µM | 29.6 µM | 32.4 µM | 41.5 µM | 28.1 µM | 29.6 µM | 34.9 µM |  | 56.8 | 35.7 µM |  |  |  |  |  |  | 
COC(=O)C1=C(O)C(C(=O)OC)[C@]2(O)[C@H](C(=O)OC)[C@H]1C[C@@H](c1ccc(OC)cc1)[C@H]2C(=O)OC (stereo not given in full) | > 100 µM | > 100 µM | 38.5 µM | 97.7 µM | 66.6 µM | > 100 µM | > 100 µM |  | > 100 µM | 86.1 | > 100 µM |  |  |  |  |  |  | 
NC(CCCCNc1ccn(C2OC(CO)C(O)C2O)c(=O)n1)C(=O)O (stereo not given) | > 100 µM | > 100 µM |  |  | > 100 µM | > 100 µM | > 100 µM | > 100 µM | > 100 µM | > 100 | > 100 µM |  |  |  |  |  |  | 
